{
  "source": "ChEMBL document CHEMBL4482324",
  "about": "“Ash1l inhibitors and methods of treatment therewith” (2017)",
  "data": [
    {"target": "Histone-lysine N-methyltransferase ASH1L (Homo sapiens, UniProt Q9NR48)", "assay": "Inhibition of MOCR-fused ASH1L SET-BAH ( 2069 to 2833 amino acids) (unknown origin) expressed as in Escherichia coli BL21 (DE3) T1R cells using SAM and chicken mono/dinucleosomes incubated for 1 hr by scintillation counting assay", "units": {"IC50": "µM"}, "values": [
      {"smiles": "NC(=S)c1cccc(-c2cn(CCC(F)(F)F)c3cc(N)ccc23)c1", "IC50": "< 20"},
      {"smiles": "Cc1c[nH]c2cccc(-c3cccc(C(N)=S)c3)c12", "IC50": "> 100"},
      {"smiles": "NC(=S)c1cccc(Oc2ccccc2)c1", "IC50": "> 100"},
      {"smiles": "NC(=S)c1nccs1", "IC50": "> 100"},
      {"smiles": "NC(=S)c1cccc(-c2cn(CCC(F)F)c3cc(CO)cc(F)c23)c1", "IC50": "< 20"},
      {"smiles": "NC(=O)c1cc(-c2cn(CCC(F)F)c3cc(CO)ccc23)ccc1N", "IC50": "< 20"},
      {"smiles": "NC(=S)c1cccc(-c2cn(C3CCOCC3)c3cc(CNC(=O)Cc4c[nH]cn4)ccc23)c1", "IC50": "< 20"},
      {"smiles": "NC(=S)c1cccc(-c2cn(CCC(F)F)c3cc(CNc4c[nH]cn4)ccc23)c1", "IC50": "< 20"},
      {"smiles": "NC(=S)c1cccc(-c2cn(CCC(F)F)c3cc(C(O)CO)ccc23)c1", "note": "(centres undefined)", "IC50": "< 20"},
      {"smiles": "NC(=O)c1cccc(-c2cn(CCC(F)F)c3cc(CO)ccc23)c1", "IC50": "< 20"},
      {"smiles": "NC(=S)c1cccc(-c2cn(CC(C(F)F)C(F)F)c3cc(CO)ccc23)c1", "IC50": "< 20"},
      {"smiles": "COCc1cc2c(-c3cccc(C(N)=S)c3)ccc(O)c2[nH]1", "IC50": "20 to 100"},
      {"smiles": "NC(=S)c1cccc(-c2c[nH]c3cc4cc[nH]c4cc23)c1", "IC50": "< 20"},
      {"smiles": "Cc1[nH]c2ccccc2c1-c1cccc(C(N)=S)c1", "IC50": "> 100"},
      {"smiles": "NC(=S)c1cccc(-c2cccc3nc(N)sc23)c1", "IC50": "20 to 100"},
      {"smiles": "NC(=S)c1cccc(-c2ccc(O)c(F)c2)c1", "IC50": "> 100"},
      {"smiles": "NC(=S)c1cccc(-c2ccc(S(N)(=O)=O)cc2)c1", "IC50": "> 100"},
      {"smiles": "NC(=S)c1cccc(-c2cn(CC(CF)CF)c3cc(NCCc4c[nH]cn4)ccc23)c1", "IC50": "< 20"},
      {"smiles": "COc1ccc(-c2cccc(C(N)=S)c2)cc1", "IC50": "> 100"},
      {"smiles": "CCCS(=O)(=O)N1CCC(n2cc(-c3cccc(C(N)=S)c3)c3ccc(CNC(=O)Cc4cc(C)[nH]n4)cc32)CC1", "IC50": "< 20"},
      {"smiles": "Cn1cc(-c2cccc(C(N)=S)c2)c2ccccc21", "IC50": "20 to 100"},
      {"smiles": "NC(=S)c1cccc(-c2cn(CCC(F)F)c3cc(CNC(=O)C(F)(F)F)ccc23)c1", "IC50": "< 20"},
      {"smiles": "NC(=S)c1c[nH]c(=O)c(-c2cn(CCC(F)F)c3cc(CO)ccc23)c1", "IC50": "< 20"},
      {"smiles": "NC(=S)c1cccc(-c2ccccc2O)c1", "IC50": "> 100"},
      {"smiles": "NC(=S)c1cccc(-c2cc(CC(CF)CF)c3[nH]ccc3c2)c1", "IC50": "< 20"},
      {"smiles": "NC(=S)c1cccc(-c2ccc(CCC(F)F)c3[nH]cnc23)c1", "IC50": "< 20"},
      {"smiles": "Cc1nc(CS(=O)(=O)NCc2ccc3c(-c4cccc(C(N)=S)c4)cn(C4CCN(S(C)(=O)=O)CC4)c3c2)cs1", "IC50": "< 20"},
      {"smiles": "NC(=S)c1cccc(-c2cn(C3CCOCC3)c3cc(N)ccc23)c1", "IC50": "< 20"},
      {"smiles": "NC(=S)c1cncc(-c2ccc(O)cc2)c1", "IC50": "> 100"},
      {"smiles": "NC(=S)c1cccc(-c2cn(CCCC(F)(F)F)c3cc(CNC(=O)Cc4csc(N)n4)ccc23)c1", "IC50": "< 20"},
      {"smiles": "COc1cc(C(N)=S)cc(-c2cccc3[nH]ccc23)c1", "IC50": "> 100"},
      {"smiles": "CS(=O)(=O)N1CCC(n2cc(-c3cccc(C(N)=S)c3)c3ccc(CNC(=O)C4CNC4)cc32)CC1", "IC50": "< 20"},
      {"smiles": "NC(=S)c1cccc(-c2cn(CC3CC3)c3cc(CO)ccc23)c1", "IC50": "< 20"},
      {"smiles": "NC(=S)c1cc(-c2cn(CC(CF)CF)c3cc(CO)ccc23)ccc1O", "IC50": "< 20"},
      {"smiles": "NC(=S)c1cccc(-c2cn(CCCC(F)(F)F)c3cc(CN4CCOCC4)ccc23)c1", "IC50": "20 to 100"},
      {"smiles": "Cc1cc(C(N)=S)cc(-c2ccc(O)cc2)c1", "IC50": "> 100"},
      {"smiles": "NC(=S)c1cccc(-c2cn(CCC(F)F)c3cc4cc[nH]c4cc23)c1", "IC50": "< 20"},
      {"smiles": "CS(=O)(=O)N1CCC(n2cc(-c3cccc(C(N)=S)c3)c3ccc(CNc4nnc(N)s4)cc32)CC1", "IC50": "< 20"},
      {"smiles": "CSCCn1cc(-c2cccc(C(N)=S)c2)c2ccc(N)cc21", "IC50": "< 20"},
      {"smiles": "NC(=S)c1cccc(-c2cn(C3CCN(S(=O)(=O)CCCNC(=O)c4ccc5c(c4)C(=O)OC54c5ccc(O)cc5Oc5cc(O)ccc54)CC3)c3cc(CNc4nnc(N)s4)ccc23)c1", "IC50": "< 20"},
      {"smiles": "NC(=S)c1cccc(-c2cn(C3CCN(S(N)(=O)=O)CC3)c3cc(N)ccc23)c1", "IC50": "< 20"},
      {"smiles": "NC(=S)c1cccc(-c2cn(CCCC(F)(F)F)c3cc(NCC(F)(F)F)ccc23)c1", "IC50": "< 20"},
      {"smiles": "NC(=S)c1cccc(-c2cn(CCC3CC3)c3cc(CO)ccc23)c1", "IC50": "< 20"},
      {"smiles": "NC(=S)c1cccc(-c2cn(CC3(F)CCC3)c3cc(CO)ccc23)c1", "IC50": "< 20"},
      {"smiles": "NC(=S)c1cccc(-c2cn(CC(CO)CO)c3cc(N)ccc23)c1", "IC50": "< 20"},
      {"smiles": "NC(=S)c1cccc(-c2ccccc2)c1", "IC50": "> 100"},
      {"smiles": "CC(O)Cn1cc(-c2cccc(C(N)=S)c2)c2ccccc21", "note": "(centres undefined)", "IC50": "20 to 100"},
      {"smiles": "NC(=S)c1ccnc(-c2cn(CCC(F)F)c3cc(CO)ccc23)c1", "IC50": "< 20"},
      {"smiles": "NC(=S)c1cccc(-c2cn(CCC(F)F)c3cc(N4CCOCC4)ccc23)c1", "IC50": "< 20"},
      {"smiles": "NC(=S)c1ccc(N)c(-c2cccc3[nH]ccc23)c1", "IC50": "> 100"},
      {"smiles": "NC(=S)c1cccc(-c2cn(CC3CC3(F)F)c3cc(N)ccc23)c1", "note": "(centres undefined)", "IC50": "< 20"},
      {"smiles": "NC(=S)c1cccc(-c2cccc3[nH]ncc23)n1", "IC50": "> 100"},
      {"smiles": "NC(=S)c1cccc(-c2ccc(O)cc2)n1", "IC50": "> 100"},
      {"smiles": "NC(=S)c1cc(-c2cn(CCC(F)F)c3cc(CO)ccc23)ccn1", "IC50": "< 20"},
      {"smiles": "CS(=O)(=O)N1C2CCC1CC(n1cc(-c3cccc(C(N)=S)c3)c3ccc(N)cc31)C2", "note": "(centres undefined)", "IC50": "< 20"},
      {"smiles": "CCCn1cncc1CC(=O)NCc1ccc2c(-c3cccc(C(N)=S)c3)cn(C3CCN(S(=O)(=O)CCC)CC3)c2c1", "IC50": "< 20"},
      {"smiles": "NC(=S)c1cccc(-c2cn(C3CCOCC3)c3cc(SCCO)ccc23)c1", "IC50": "< 20"},
      {"smiles": "NC(=S)c1cccc(-c2cn(Cc3cn[nH]c3)c3cc(N)ccc23)c1", "IC50": "20 to 100"},
      {"smiles": "NC(=S)c1cc(-c2cccc3[nH]ccc23)ccc1N", "IC50": "> 100"},
      {"smiles": "NC(=S)c1cccc(-c2cn(C3CCN(C(=O)CCCCc4cccc5c4C(=O)N(C4CCC(=O)NC4=O)C5=O)CC3)c3cc(CNc4nnc(N)s4)ccc23)c1", "note": "(centres undefined)", "IC50": "< 20"},
      {"smiles": "NC(=S)c1cccc(-c2cn(CCO)c3cc([N+](=O)[O-])ccc23)c1", "IC50": "20 to 100"},
      {"smiles": "NC(=S)c1cc(-c2ccc(O)cc2)ccc1F", "IC50": "> 100"},
      {"smiles": "NC(=S)c1cccc(-c2cn(CCC(F)F)c3cc(C(F)F)ccc23)c1", "IC50": "< 20"},
      {"smiles": "Cc1cc(-c2cccc(C(N)=S)c2)ccc1O", "IC50": "> 100"},
      {"smiles": "NC(=S)c1cccc(-n2cc(N3CCCCC3)c3cc(CO)ccc32)c1", "IC50": "< 20"},
      {"smiles": "NC(=O)c1cc2c(-c3cccc(C(N)=S)c3)cccc2[nH]1", "IC50": "> 100"},
      {"smiles": "NC(=S)c1cccc(-c2cn(CC(F)(F)F)c3cc(N)ccc23)c1", "IC50": "< 20"},
      {"smiles": "NC(=S)c1cccc(-c2cn(CC(C(F)F)C(F)F)c3cc(N)ccc23)c1", "IC50": "< 20"},
      {"smiles": "NC(=S)c1ccc(-c2ccc(O)cc2)s1", "IC50": "> 100"},
      {"smiles": "CCCCn1cnc(CC(=O)NCc2ccc3c(-c4cccc(C(N)=S)c4)cn(C4CCOCC4)c3c2)c1", "IC50": "< 20"},
      {"smiles": "CC(N)c1cccc(-c2cccc3[nH]ccc23)c1", "note": "(centres undefined)", "IC50": "> 100"},
      {"smiles": "NCCn1cc(-c2cccc(C(N)=S)c2)c2ccccc21", "IC50": 22},
      {"smiles": "NC(=S)c1cccc(-c2cn(CC3C(F)(F)C3(F)F)c3cc(CO)ccc23)c1", "IC50": "< 20"},
      {"smiles": "NCc1ccc2c(-c3cccc(C(N)=S)c3)cn(C3CCOCC3)c2c1", "IC50": "< 20"},
      {"smiles": "CS(=O)(=O)N1CCC(n2cc(-c3cccc(C(N)=S)c3)c3ccc(CNC(=O)Cc4ccc[nH]4)cc32)CC1", "IC50": "< 20"},
      {"smiles": "NC(=S)c1cccc(-c2cn(CC3(F)CC3)c3cc(CO)ccc23)c1", "IC50": "< 20"},
      {"smiles": "NC(=S)c1cc(-c2cn(CC(CF)CF)c3cc(CO)ccc23)ccc1F", "IC50": "< 20"},
      {"smiles": "NC(=O)C1CCN(Cc2ccc3c(-c4cccc(C(N)=S)c4)cn(CCCC(F)(F)F)c3c2)CC1", "IC50": "20 to 100"},
      {"smiles": "CC1(Cn2cc(-c3cccc(C(N)=S)c3)c3ccc(CO)cc32)CC1", "IC50": "< 20"}
    ]}
  ]
}
